The values below come from patent US20220273607A1, “METHODS OF USING MODIFIED […] TREAT CANCER” (NORTHWESTERN UNIVERSITY, priority 2019, published 2022).

What all share (format): cell-based
The subject of one assay is HT-1080 cells. Put plainly: CellTiter Blue cytotoxicity with and without CD36 blocker SSO, HT-1080. The note with it: different compound concentrations and different concentrations of SSO, FIG. 3. The method, then:
The compound of Example 2 (ODDA-PTX) was compared with paclitaxel (PTX) in terms of cellular uptake. The comparison was carried out in HT-1080 cell culture using sulfosuccinimidyl oleate (SSO), a chemical blocker of fatty acid translocase/CD36:
Cytotoxicity of the compounds was evaluated using the CellTiter Blue (CTB) assay (Promega, cat G8081). Treatments of fatty acid-conjugates were prepared as 1000× serial stock dilutions in DMSO, then diluted into media for 1×, 0.1% DMSO treatment solutions. […]
Expression of CD36 in HT-1080 was validated using flow cytometry and a fluorophore-conjugated CD36 antibody (CD36, eFluor 660, clone: eBioNL07 (NL07), eBioscience). […] Cells were resuspended in a final volume of 100 μL resuspension and analyzed via flow cytometry for presence of CD36. […]
HT-1080 cells were plated in 96-well plates one day before treatment, at a seeding density of 10,000 cells/well. […] Fluorescence was measured at 590 nm with excitation at 560 nm using a Perkin Elmer EnSpire plate reader. Average background fluorescence readings of the experimental wells (three wells per treatment concentration). Viability was calculated as the average background-subtracted signal in a well compared to that of a negative control (cells treated with vehicle, […] in media). […]
(In general: The colour change of resazurin is a common sign of viable cells or microbes.)

A further assay relates to MCF-7 cells. The assay is described as follows: CellTiter Blue cytotoxicity with and without CD36 blocker SSO, MCF-7. Particulars: different compound concentrations and different concentrations of SSO, FIG. 4.
The next assay relates to HepG2 cells. The assay is described as follows: CellTiter Blue cytotoxicity with and without CD36 blocker SSO, HepG2. The note with it: different compound concentrations and different concentrations of SSO, FIG. 5.

On to `CC(=O)O[C@H]1C(=O)[C@@]2(C)[C@H]([C@H](OC(=O)c3ccccc3)[C@]3(O)C[C@H](OC(=O)[C@H](OC(=O)CCCCCCCCCCCCCCCCC(=O)O)[C@@H](NC(=O)c4ccccc4)c4ccccc4)C(C)=C1C3(C)C)[C@]1(OC(C)=O)CO[C@@H]1C[C@@H]2O` [ODDA-PTX, Paclitaxel-C18 Diacid Conjugate], for which the “change of percent viability of the cells with increasing concentration of the CD36 inhibitor” value with HT-1080 cells, with MCF-7 cells and in the assay with HepG2 cells was “increasing the concentration of the CD36 inhibitor correlates with increasing percent viability” throughout.
